From US10816493B2, “Electrical measurement method, electrical measurement device, and blood condition analysis system” (SONY CORPORATION, priority 2015, dated 2020) come the findings set out here.

The experiment has as its system blood coagulation. Put plainly: Permittivity measurement over time of blood samples with calcium chloride added (coagulation start-indicating parameter). It is filed as cell-based. On the procedure:
Experimental Example 2 was performed to determine whether and how the results of measurement of an electrical characteristic differ between a case using a compound having an inhibitory effect on blood sedimentation and having no influence on the electrical characteristic parameter used for analysis and a case using a compound having an influence on the electrical characteristic parameter. In this experimental example, permittivity was used as an example of the electrical characteristic. In addition, a coagulation start-indicating parameter for use in blood coagulation analysis was focused on as an example of the electrical characteristic parameter for use in analysis. Furthermore, in Experimental Example 2, measurement was performed on blood samples containing citric acid added as an anticoagulant with calcium chloride added as a blood coagulation […].
Carboxymethyl dextran as an example of the blood sedimentation inhibitor was dissolved at a concentration of 10% w/v in PBS. The carboxymethyl dextran-containing PBS solution was added in an amount of 10% to a whole blood sample with a high blood sedimentation rate, so that a sample of Example 3 was obtained.
A control sample was prepared by adding a blood sedimentation inhibitor-free PBS in an amount of 10% to the same whole blood sample as in Example 3.
Betaine was dissolved at a concentration of 10% w/v in PBS. The resulting blood sedimentation inhibitor-containing PBS solution was added in an amount of 10% to a blood sample with sedimentation abnormalities, prepared by a method similar to that in Experimental Example 1, so that a sample of Comparative Example 3 was obtained.
A control sample was prepared by adding a blood sedimentation inhibitor-free PBS in an amount of 10% to a blood sample with sedimentation abnormalities, prepared by a method similar to that in Experimental Example 1.
The permittivity of 180 μL of each of the samples of Example 3, Control for Example, Comparative Example 3, and Control for Comparative Example, prepared as described above, was measured at a frequency of 1 MHz over time.

For `C[N+](C)(C)CC(=O)O` [Comparative Example 3, Betaine], the “analysis of blood coagulation start time using a parameter indicating the time at which coagulation started” value (10% w/v in PBS added in an amount of 10%, citric acid plus calcium chloride, permittivity at 1 MHz) is “impossible to extract any parameter indicating the coagulation start time”. Also, the “signal behavior compared with the control sample” value (10% w/v in PBS added in an amount of 10%, citric acid plus calcium chloride, permittivity at 1 MHz, FIGS. 6 and 7) is reported as “completely different from that of the control sample”. The “adverse effect on the analysis (usability as blood sedimentation inhibitor)” value (blood coagulation analysis based on permittivity) was “has an adverse effect on the analysis”. Besides, the “inhibitory effect on blood sedimentation (in words)” value (suggested from results of Experimental Example 2) was “have an inhibitory effect on blood sedimentation”.
